Data: ChEMBL document CHEMBL4411322 (J Med Chem, 2019)
pIC50: −log10 of the molar value. Non-standard residues stand in square brackets, D forms with d. Residues, ends and D or L forms follow the SMILES beside them.

Experiments:
Homo sapiens = species: Homo sapiens; assay: Selectivity ratio of IC50 for human integrin alphavbeta6 receptor to IC50 for human integrin alphavbeta8 receptor
Integrin alpha-V/beta-6 = Integrin alpha-V/beta-6 (Homo sapiens, UniProt P06756+P18564); assay: Inhibition of LAP binding to human integrin alphavbeta6 receptor after 1 hr by solid-phase binding assay; assay type: protein-complex assay; details: read-out: IC50
Integrin alpha-V/beta-6, sequence (P06756 31-889 limits assumed): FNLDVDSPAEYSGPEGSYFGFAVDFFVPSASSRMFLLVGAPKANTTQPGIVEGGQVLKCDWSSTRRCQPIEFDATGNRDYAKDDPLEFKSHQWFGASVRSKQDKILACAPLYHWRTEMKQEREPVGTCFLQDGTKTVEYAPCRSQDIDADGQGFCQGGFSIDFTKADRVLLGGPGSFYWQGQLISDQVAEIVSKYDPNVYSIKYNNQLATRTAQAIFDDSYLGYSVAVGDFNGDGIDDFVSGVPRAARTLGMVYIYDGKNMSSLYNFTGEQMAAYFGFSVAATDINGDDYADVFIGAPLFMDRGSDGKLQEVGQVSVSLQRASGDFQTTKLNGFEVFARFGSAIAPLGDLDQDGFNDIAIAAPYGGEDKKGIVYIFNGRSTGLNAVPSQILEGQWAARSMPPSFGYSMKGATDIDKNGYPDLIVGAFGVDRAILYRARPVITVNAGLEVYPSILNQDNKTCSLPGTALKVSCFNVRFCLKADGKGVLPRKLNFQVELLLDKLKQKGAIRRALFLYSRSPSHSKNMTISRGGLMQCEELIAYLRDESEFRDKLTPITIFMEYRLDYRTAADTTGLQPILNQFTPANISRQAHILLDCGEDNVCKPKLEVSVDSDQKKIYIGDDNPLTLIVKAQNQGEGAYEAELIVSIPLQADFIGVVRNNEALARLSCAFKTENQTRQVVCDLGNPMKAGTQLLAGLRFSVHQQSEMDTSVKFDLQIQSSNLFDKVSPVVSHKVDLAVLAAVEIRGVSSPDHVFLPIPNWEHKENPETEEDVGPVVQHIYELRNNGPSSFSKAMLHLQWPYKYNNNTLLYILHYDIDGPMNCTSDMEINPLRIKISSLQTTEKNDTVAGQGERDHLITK
Integrin alpha-V/beta-6, sequence (P06756 891-1048 limits assumed): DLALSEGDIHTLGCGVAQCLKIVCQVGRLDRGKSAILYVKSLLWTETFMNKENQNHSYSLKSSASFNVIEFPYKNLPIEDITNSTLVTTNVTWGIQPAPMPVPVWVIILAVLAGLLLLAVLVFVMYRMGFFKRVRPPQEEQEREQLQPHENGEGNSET
Integrin alpha-V/beta-6, sequence (P18564 22-788 limits assumed): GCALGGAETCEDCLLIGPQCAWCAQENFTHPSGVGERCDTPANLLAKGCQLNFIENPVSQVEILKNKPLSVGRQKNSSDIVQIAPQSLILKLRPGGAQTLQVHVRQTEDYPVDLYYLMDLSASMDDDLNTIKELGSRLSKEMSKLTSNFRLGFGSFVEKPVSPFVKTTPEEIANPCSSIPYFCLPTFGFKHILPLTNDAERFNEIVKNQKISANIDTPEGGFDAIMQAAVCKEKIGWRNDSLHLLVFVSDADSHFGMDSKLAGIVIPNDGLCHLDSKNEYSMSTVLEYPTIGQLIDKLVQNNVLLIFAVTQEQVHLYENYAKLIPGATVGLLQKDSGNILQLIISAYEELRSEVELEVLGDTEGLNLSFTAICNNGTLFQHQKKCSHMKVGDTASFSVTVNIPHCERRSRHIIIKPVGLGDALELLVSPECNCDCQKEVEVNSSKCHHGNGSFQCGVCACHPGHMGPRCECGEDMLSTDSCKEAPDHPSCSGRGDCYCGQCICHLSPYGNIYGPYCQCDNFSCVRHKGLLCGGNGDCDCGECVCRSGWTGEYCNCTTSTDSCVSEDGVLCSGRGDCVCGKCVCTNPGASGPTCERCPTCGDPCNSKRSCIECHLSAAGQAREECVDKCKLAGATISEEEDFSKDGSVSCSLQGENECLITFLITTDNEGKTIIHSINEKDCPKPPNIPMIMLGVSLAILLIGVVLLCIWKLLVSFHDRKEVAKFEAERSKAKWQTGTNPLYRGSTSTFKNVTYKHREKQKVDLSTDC

Integrin alpha-V/beta-8 = Integrin alpha-V/beta-8 (Homo sapiens, UniProt P06756+P26012); assay: Inhibition of LAP binding to human integrin alphavbeta8 receptor after 1 hr by solid-phase binding assay; assay type: protein-complex assay; details: read-out: IC50
Integrin alpha-V/beta-8, sequence (P06756 31-889 limits assumed): as the sequence (P06756 31-889 limits assumed) above
Integrin alpha-V/beta-8, sequence (P06756 891-1048 limits assumed): as the sequence (P06756 891-1048 limits assumed) above
Integrin alpha-V/beta-8, sequence (P26012 43-769 limits assumed): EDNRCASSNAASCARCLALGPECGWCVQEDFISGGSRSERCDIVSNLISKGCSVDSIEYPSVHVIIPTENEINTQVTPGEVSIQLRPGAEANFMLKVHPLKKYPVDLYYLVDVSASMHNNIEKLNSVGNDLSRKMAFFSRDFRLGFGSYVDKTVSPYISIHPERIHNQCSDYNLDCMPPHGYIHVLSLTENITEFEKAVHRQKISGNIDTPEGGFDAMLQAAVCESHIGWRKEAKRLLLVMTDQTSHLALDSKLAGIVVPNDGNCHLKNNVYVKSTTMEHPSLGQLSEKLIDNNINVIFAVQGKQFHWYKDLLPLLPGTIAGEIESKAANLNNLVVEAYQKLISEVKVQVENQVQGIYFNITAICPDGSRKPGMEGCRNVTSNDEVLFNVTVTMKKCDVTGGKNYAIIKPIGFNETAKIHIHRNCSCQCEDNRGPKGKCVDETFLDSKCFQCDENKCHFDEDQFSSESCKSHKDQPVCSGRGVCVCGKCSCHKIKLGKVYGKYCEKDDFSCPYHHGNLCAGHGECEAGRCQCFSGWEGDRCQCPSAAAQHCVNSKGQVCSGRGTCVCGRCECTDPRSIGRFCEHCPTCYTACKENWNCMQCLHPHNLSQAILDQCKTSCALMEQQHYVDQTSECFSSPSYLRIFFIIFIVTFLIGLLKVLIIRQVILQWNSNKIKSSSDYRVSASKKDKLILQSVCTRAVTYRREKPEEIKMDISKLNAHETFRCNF

Integrin alpha-V/beta-5 = Integrin alpha-V/beta-5 (Homo sapiens, UniProt P06756+P18084); assay: Inhibition of human vitronectin binding to human integrin alphavbeta5 receptor after 1 hr by solid-phase binding assay; assay type: protein-complex assay
[1] = molecular target: Integrin alpha-IIb/beta-3 (Homo sapiens, UniProt P05106+P08514); assay: Inhibition of human fibrinogen binding to human platelet integrin alpha2b-beta3 receptor after 1 hr by solid-phase binding assay
Integrin alpha-V/beta-3 = Integrin alpha-V/beta-3 (Homo sapiens, UniProt P05106+P06756); assay: Inhibition of human vitronectin binding to human integrin alphavbeta3 receptor after 1 hr by solid-phase binding assay; assay type: protein-complex assay
Integrin alpha-5/beta-1 = Integrin alpha-5/beta-1 (Homo sapiens, UniProt P05556+P08648); assay: Inhibition of human fibronectin binding to human integrin alpha5beta1 receptor after 1 hr by solid-phase binding assay; assay type: protein-complex assay
Integrin alpha-5/beta-1, sequence (P05556 21-798 limits assumed): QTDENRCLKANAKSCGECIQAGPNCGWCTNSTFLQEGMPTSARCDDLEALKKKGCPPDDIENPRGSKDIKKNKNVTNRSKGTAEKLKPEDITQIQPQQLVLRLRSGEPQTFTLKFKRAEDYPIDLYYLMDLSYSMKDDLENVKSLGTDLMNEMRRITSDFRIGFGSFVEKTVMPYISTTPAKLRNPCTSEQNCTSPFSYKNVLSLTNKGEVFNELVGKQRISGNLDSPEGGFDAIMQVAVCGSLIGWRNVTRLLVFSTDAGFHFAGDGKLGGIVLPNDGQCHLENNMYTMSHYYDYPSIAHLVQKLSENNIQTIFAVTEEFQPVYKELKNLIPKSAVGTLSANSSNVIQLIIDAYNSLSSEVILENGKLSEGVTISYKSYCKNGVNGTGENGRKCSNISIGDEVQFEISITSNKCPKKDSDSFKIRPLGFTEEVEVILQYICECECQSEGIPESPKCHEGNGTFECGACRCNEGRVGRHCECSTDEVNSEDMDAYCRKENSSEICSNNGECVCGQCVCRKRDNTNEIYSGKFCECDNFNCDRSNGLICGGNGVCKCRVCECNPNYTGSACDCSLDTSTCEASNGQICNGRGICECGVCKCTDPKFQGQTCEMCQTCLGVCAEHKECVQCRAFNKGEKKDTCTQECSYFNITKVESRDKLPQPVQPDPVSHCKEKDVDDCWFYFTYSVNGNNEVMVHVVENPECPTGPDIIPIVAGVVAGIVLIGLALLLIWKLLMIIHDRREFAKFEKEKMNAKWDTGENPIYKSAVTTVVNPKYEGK
Integrin alpha-5/beta-1, sequence (P08648 42-894 limits assumed): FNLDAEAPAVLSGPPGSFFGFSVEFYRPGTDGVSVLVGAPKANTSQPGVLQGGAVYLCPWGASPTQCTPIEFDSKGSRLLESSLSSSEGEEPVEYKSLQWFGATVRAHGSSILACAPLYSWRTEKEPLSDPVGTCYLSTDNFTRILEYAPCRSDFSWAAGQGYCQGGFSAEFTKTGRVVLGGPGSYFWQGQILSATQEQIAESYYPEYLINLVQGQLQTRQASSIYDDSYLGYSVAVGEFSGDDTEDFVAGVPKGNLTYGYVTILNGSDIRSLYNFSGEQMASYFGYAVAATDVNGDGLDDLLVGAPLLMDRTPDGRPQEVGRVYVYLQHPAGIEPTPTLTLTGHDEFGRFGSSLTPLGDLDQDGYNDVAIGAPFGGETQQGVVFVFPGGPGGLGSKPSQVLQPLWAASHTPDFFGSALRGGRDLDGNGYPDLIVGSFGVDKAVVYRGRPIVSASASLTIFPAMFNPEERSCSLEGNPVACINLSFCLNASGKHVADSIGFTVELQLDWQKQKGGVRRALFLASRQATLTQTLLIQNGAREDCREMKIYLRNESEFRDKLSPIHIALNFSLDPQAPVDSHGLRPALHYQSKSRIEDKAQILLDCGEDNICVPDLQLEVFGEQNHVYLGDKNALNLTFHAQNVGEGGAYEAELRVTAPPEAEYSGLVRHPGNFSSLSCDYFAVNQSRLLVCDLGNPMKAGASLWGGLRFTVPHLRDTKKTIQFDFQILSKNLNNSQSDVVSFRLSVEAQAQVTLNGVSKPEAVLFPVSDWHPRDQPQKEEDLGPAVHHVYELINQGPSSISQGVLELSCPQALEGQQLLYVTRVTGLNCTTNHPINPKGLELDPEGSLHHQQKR
Integrin alpha-5/beta-1, sequence (P08648 895-1049 limits assumed): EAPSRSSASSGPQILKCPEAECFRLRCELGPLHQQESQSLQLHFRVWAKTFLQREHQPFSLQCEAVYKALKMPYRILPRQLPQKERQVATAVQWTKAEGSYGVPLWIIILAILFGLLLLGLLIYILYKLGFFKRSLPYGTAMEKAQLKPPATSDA

## CCCC[C@@H]1NC(=O)[C@H](CC(=O)O)NC(=O)CNC(=O)[C@H](CCCNC(=N)N)NC(=O)[C@H](Cc2ccccc2)NC(=O)[C@H](C)NC(=O)[C@@H]2CCCN2C(=O)[C@H]2CCCN2C1=O
Homo sapiens
  Ratio IC50: 3.7
Integrin alpha-V/beta-6
  pIC50: 6.85
Integrin alpha-V/beta-8
  pIC50: 7.42

## CC(C)C[C@@H]1NC(=O)[C@H](CC(=O)O)NC(=O)CNC(=O)[C@H](CCCNC(=N)N)NC(=O)CNC(=O)[C@H](C)NC(=O)[C@@H]2CCCN2C(=O)[C@H]2CCCN2C1=O
Homo sapiens
  Ratio IC50: 2.7
Integrin alpha-V/beta-6
  pIC50: 7.37
Integrin alpha-V/beta-8
  pIC50: 7.80

## CC(C)C[C@@H]1NC(=O)[C@H](CC(=O)O)NC(=O)CNC(=O)[C@H](CCCNC(=N)N)NC(=O)[C@H](CC(=O)O)NC(=O)[C@H](C)NC(=O)[C@@H]2CCCN2C(=O)[C@H]2CCCN2C1=O
Homo sapiens
  Ratio IC50: 12
Integrin alpha-V/beta-6
  pIC50: 7.12
Integrin alpha-V/beta-8
  pIC50: 8.20

## CC(C)C[C@@H]1NC(=O)[C@H](C)NC(=O)[C@@H]2CCCN2C(=O)[C@@H](C(C)C)N(C)C(=O)[C@H](CC(C)C)NC(=O)[C@H](CC(=O)O)NC(=O)CNC(=O)[C@H](CCCNC(=N)N)NC1=O
Homo sapiens
  Ratio IC50: 1.6
Integrin alpha-V/beta-6
  pIC50: 7.51
Integrin alpha-V/beta-8
  pIC50: 7.72

## CC(C)C[C@@H]1NC(=O)[C@@H]2CCCN2C(=O)[C@H]2CCCN2C(=O)[C@H](CC(C)C)NC(=O)[C@H](CC(=O)O)NC(=O)CNC(=O)[C@H](CCCNC(=N)N)NC(=O)[C@H](C)NC(=O)[C@H](C)NC(=O)[C@H](C)NC1=O
Homo sapiens
  Ratio IC50: 1.4
Integrin alpha-V/beta-6
  pIC50: 6.05
Integrin alpha-V/beta-8
  pIC50: 6.20

## CC(C)C[C@@H]1NC(=O)[C@H](CC(=O)O)NC(=O)CNC(=O)[C@H](CCCNC(=N)N)NC(=O)[C@H](Cc2c[nH]c3ccccc23)NC(=O)[C@H](C)NC(=O)[C@@H]2CCCN2C(=O)[C@H]2CCCN2C1=O
Homo sapiens
  Ratio IC50: 20.1
Integrin alpha-V/beta-6
  pIC50: 7.14
Integrin alpha-V/beta-8
  pIC50: 8.43

## CC(C)C[C@@H]1NC(=O)[C@H](C)NC(=O)[C@H](C)NC(=O)[C@@H]2CCCN2C(=O)[C@H]2CCCN2C(=O)[C@H](CC(C)C)NC(=O)[C@H](CC(=O)O)NC(=O)CNC(=O)[C@H](CCCNC(=N)N)NC(=O)[C@H](C)NC1=O
Homo sapiens
  Ratio IC50: 2.9
Integrin alpha-V/beta-6
  pIC50: 6.85
Integrin alpha-V/beta-8
  pIC50: 7.32

## CCNC(=N)NCCC[C@@H]1NC(=O)[C@H](CC(C)C)NC(=O)CNC(=O)[C@@H]2CCCN2C(=O)[C@H]2CCCN2C(=O)[C@H](CC(C)C)NC(=O)[C@H](CC(=O)O)NC(=O)CNC1=O
Homo sapiens
  Ratio IC50: 20
Integrin alpha-V/beta-6
  pIC50: 6.11
Integrin alpha-V/beta-8
  pIC50: 7.42

## CC(C)C[C@@H]1NC(=O)[C@H](C)NC(=O)[C@@H]2CCCN2C(=O)[C@@H](CCCCN)N(C)C(=O)[C@H](CC(C)C)NC(=O)[C@H](CC(=O)O)NC(=O)CNC(=O)[C@H](CCCNC(=N)N)NC1=O
Homo sapiens
  Ratio IC50: 3.2
Integrin alpha-V/beta-6
  pIC50: 7.41
Integrin alpha-V/beta-8
  pIC50: 7.92

## CC(C)C[C@@H]1NC(=O)[C@H](CC(=O)O)NC(=O)[C@H]([C@@H](C)O)NC(=O)[C@H](CCCNC(=N)N)NC(=O)[C@H](Cc2ccccc2)NC(=O)[C@H](C)NC(=O)[C@@H]2CCCN2C(=O)[C@H]2CCCN2C1=O
Homo sapiens
  Ratio IC50: 60
Integrin alpha-V/beta-6
  pIC50: 6.59
Integrin alpha-V/beta-8
  pIC50: 8.37

## CC(C)C[C@@H]1NC(=O)[C@H](C)NC(=O)[C@@H]2CCCN2C(=O)[C@H]2CCCN2C(=O)[C@H](CC(C)C)NC(=O)[C@H](CC(=O)O)NC(=O)CNC(=O)[C@H](CCCNC(=N)N)NC1=O (cyclo(RGDL[dP]PAL))
Homo sapiens
  Ratio IC50: 24
Integrin alpha-V/beta-6
  pIC50: 7.50
Integrin alpha-V/beta-8
  pIC50: 8.88

## CC(C)C[C@@H]1NC(=O)[C@@H]2CCCN2C(=O)[C@H]2CCCN2C(=O)[C@H](CC(C)C)NC(=O)[C@H](CC(=O)O)NC(=O)CNC(=O)[C@H](CCCNC(=N)N)NC(=O)[C@H](C)NC1=O
Homo sapiens
  Ratio IC50: 3.7
Integrin alpha-V/beta-6
  pIC50: 6.38
Integrin alpha-V/beta-8
  pIC50: 6.94

## CC(C)C[C@@H]1NC(=O)CNC(=O)[C@@H]2CCCN2C(=O)[C@H]2CCCN2C(=O)[C@H](CC(C)C)NC(=O)[C@H](CC(=O)O)NC(=O)CNC(=O)[C@H](CCCNC(=N)N)NC1=O (cyclo(RGDL[dP]PGL))
Integrin alpha-V/beta-5
  pIC50: < 6.00
Homo sapiens
  Ratio IC50: 36
[1]
  pIC50: < 6.00
Integrin alpha-V/beta-3
  pIC50: < 6.00
Integrin alpha-V/beta-6
  pIC50: 6.80
Integrin alpha-5/beta-1
  pIC50: < 6.00
Integrin alpha-V/beta-8
  pIC50: 8.35

## CCCCCCNC1C[C@H]2C(=O)NCC(=O)N[C@@H](CC(C)C)C(=O)N[C@@H](CCCNC(=N)N)C(=O)NCC(=O)N[C@@H](CC(=O)O)C(=O)N[C@@H](CC(C)C)C(=O)N3CCC[C@@H]3C(=O)N2C1 (some centres undefined)
Homo sapiens
  Ratio IC50: 16
Integrin alpha-V/beta-6
  pIC50: 6.69
Integrin alpha-V/beta-8
  pIC50: 7.89

## CC[C@H](C)[C@@H]1NC(=O)[C@H](C)NC(=O)[C@@H]2CCCN2C(=O)[C@H]2CCCN2C(=O)[C@H](CC(C)C)NC(=O)[C@H](CC(=O)O)NC(=O)CNC(=O)[C@H](CCCNC(=N)N)NC1=O
Homo sapiens
  Ratio IC50: 26.1
Integrin alpha-V/beta-6
  pIC50: 7.40
Integrin alpha-V/beta-8
  pIC50: 8.81
